Data: patent publication US20060069132A1, “Azolecarboxamide herbicides” (priority 2004, published 2006)

Tests used:
corn = test: Test B pre-/postemergence herbicide test; assay type: in vivo, Zea mays; details: for Plant response rating (0 to 100 scale), Corn / Plant response rating, Corn: preemergence
How it was run: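 Evaluation is visual, comparing treated with control plants on a scale where 0 means no effect and 100 means full control. Treatments were preemergence, or postemergence on seedlings 2–18 cm tall, and held 13–15 days in the greenhouse.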

blackgrass = test: Test B postemergence herbicide test; assay type: in vivo, Alopecurus myosuroides
How it was run: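 Plants grow to 1- to 4-leaf stage (2–18 cm) for postemergence spraying, or to 2-leaf stage for the paddy test. Formulated compound is applied. Greenhouse holding lasts 13–15 days. Response is scored visually relative to controls, 0 no effect to 100 complete control; a dash means no result.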

woolly cupgrass = test: Test C pre-/postemergence herbicide test; assay type: in vivo, Eriochloa villosa
How it was run: (§1)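 Visual ratings on a 0–100 scale (100 = complete control) made versus untreated controls after 12 to 14 greenhouse days. Test chemicals, formulated in surfactant-containing non-phytotoxic solvent, applied preemergence to planted seeds or postemergence to 1- to 4-leaf plants (2 to 18 cm).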

common ragweed = test: Test C pre-/postemergence herbicide test; assay type: in vivo, Ambrosia elatior; set-up: key to Plant response rating, Ragweed: 0 = no effect, 100 = complete control
How it was run: as §1

soybean = test: Test C pre-/postemergence herbicide test; assay type: in vivo, Glycine max
How it was run: as §1

rice = test: Test C flooded paddy test; assay type: in vivo, Oryza sativa
How it was run: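 Plants were grown to the 1- to 4-leaf stage (2–18 cm) and then treated postemergence, or grown to the 2-leaf stage for the flooded paddy test. They were held in a greenhouse for 12 to 14 days and then scored by eye against controls, where 0 is no effect and 100 is complete control.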

ducksalad = test: Test C flooded paddy test; assay type: in vivo, Heteranthera limosa
[1] = 125 g ai/ha, 0 is no effect, 100 is complete control
[2] = postemergence, 125 g ai/ha, visual rating, scale 0 (no effect) to 100 (complete control)
[3] = postemergence, 500 g ai/ha, visual rating, scale 0 (no effect) to 100 (complete control)
[4] = 125 g ai/ha, scale 0 (no effect) to 100 (complete control), visual, 12 to 14 days, preemergence
[5] = Preemergence, 500 g ai/ha, scale 0 to 100, 0 no effect, 100 complete control
[6] = 62 g ai/ha, scale 0 to 100 (0 no effect, 100 complete control)
[7] = 125 g ai/ha, scale 0 to 100 (0 no effect, 100 complete control)
[8] = 250 g ai/ha, scale of 0 to 100, 0 is no effect, 100 is complete control
[9] = 500 g ai/ha, visual rating after 12 to 14 days, scale 0 to 100 (0 no effect, 100 complete control)
[10] = 125 g ai/ha, visual rating, scale 0 (no effect) to 100 (complete control), postemergence
[11] = Postemergence, 500 g ai/ha, scale 0 (no effect) to 100 (complete control)
[12] = 62 g ai/ha, preemergence, scale 0 to 100
[13] = 500 g ai/ha, scale 0 to 100 (0 no effect, 100 complete control), visual, 12 to 14 days, preemergence

CCNC(=O)c1ccc(F)c(NC(=O)C2CN(C(C)(C)C)N=C2CC)c1 (stereo not shown) [Compound 336, 1-(1,1-dimethylethyl)-3-ethyl-N-[5-[(ethylamino)carbonyl]-2-fluorophenyl]-4,5-dihydro-1H-pyrazole-4-carboxamide]
Plant response rating (0 to 100 scale), Corn (corn; [1]): 50 | plant injury at 125 g/ha (corn; Zea mays, post-emergence, 125 g ai/ha, visual rating, scale 0 (no effect) to 100 (complete control), read-out: Corn plant response rating): 10% | plant injury at 500 g/ha (corn; Zea mays, post-emergence, postemergence, 500 g ai/ha, scale 0 to 100, 0 is no effect, 100 is complete control, read-out: Corn plant response rating): 20% | Corn plant response rating (crop injury, 0 = no effect, 100 = complete kill) at 500 g/ha (corn; Zea mays, pre-emergence, 500 g ai/ha, visual rating, 0 = no effect, 100 = complete control): 100% | pest or weed control at 125 g/ha (blackgrass; Alopecurus myosuroides, post-emergence, 336 h, 125 g ai/ha, visual rating, scale 0 (no effect) to 100 (complete control), read-out: Blackgrass plant response rating): 10% | pest or weed control at 500 g/ha (blackgrass; Alopecurus myosuroides, post-emergence, 336 h, postemergence, 500 g ai/ha, scale 0 to 100, 0 is no effect, 100 is complete control, read-out: Blackgrass plant response rating): 20% | pest or weed control at 62 g/ha (woolly cupgrass; Eriochloa villosa, pre-emergence, 312 h, 62 g ai/ha, preemergence, scale 0 to 100, read-out: Plant response rating, Cupgrass, Woolly): 5% | pest or weed control at 125 g/ha (woolly cupgrass; Eriochloa villosa, pre-emergence, 312 h, 125 g ai/ha, scale 0 (no effect) to 100 (complete control), visual, 12 to 14 days, read-out: Plant response rating, Cupgrass, Woolly): 10% | pest or weed control at 250 g/ha (woolly cupgrass; Eriochloa villosa, pre-emergence, 312 h, 250 g ai/ha, scale 0-100, read-out: Plant response rating, Cupgrass, Woolly): 60% | pest or weed control at 500 g/ha (woolly cupgrass; Eriochloa villosa, pre-emergence, 312 h, 500 g ai/ha, scale 0 to 100 (0 no effect, 100 complete control), visual, 12 to 14 days, read-out: Plant response rating, Cupgrass, Woolly): 85% | pest or weed control at 62 g/ha (common ragweed; Ambrosia artemisiifolia, pre-emergence, 62 g ai/ha, preemergence, scale 0 to 100, read-out: Plant response rating, Ragweed): 30% | pest or weed control at 250 g/ha (common ragweed; Ambrosia artemisiifolia, pre-emergence, 250 g ai/ha, scale 0-100, read-out: Plant response rating, Ragweed): 80% | pest or weed control at 500 g/ha (common ragweed; Ambrosia artemisiifolia, pre-emergence, 500 g ai/ha, scale 0 to 100 (0 no effect, 100 complete control), visual, 12 to 14 days, read-out: Plant response rating, Ragweed): 100% | plant injury at 62 g/ha (soybean; Glycine max, pre-emergence, 62 g ai/ha, preemergence, scale 0 to 100, read-out: Plant response rating, Soybean): 0% | plant injury at 250 g/ha (soybean; Glycine max, pre-emergence, 250 g ai/ha, scale 0-100, read-out: Plant response rating, Soybean): 50% | plant injury at 500 g/ha (soybean; Glycine max, pre-emergence, 500 g ai/ha, scale 0 to 100 (0 no effect, 100 complete control), visual, 12 to 14 days, read-out: Plant response rating, Soybean): 100% | plant injury at 62 g/ha (rice; Oryza sativa, 62 g ai/ha, scale 0 to 100, read-out: Rice plant response rating): 10% | plant injury at 125 g/ha (rice; Oryza sativa, 125 g ai/ha, scale 0 to 100 (0 no effect, 100 complete control), read-out: Rice plant response rating): 45% | plant injury at 250 g/ha (rice; Oryza sativa, 250 g ai/ha, scale of 0 to 100, 0 is no effect, 100 is complete control, read-out: Rice plant response rating): 75% | plant injury at 500 g/ha (rice; Oryza sativa, 500 g ai/ha, visual rating after 12 to 14 days, scale 0 to 100 (0 no effect, 100 complete control), read-out: Plant response rating, Rice): 75% | pest or weed control at 62 g/ha (ducksalad; Heteranthera limosa, 62 g ai/ha, scale 0 to 100, read-out: Ducksalad plant response rating): 45% | pest or weed control at 125 g/ha (ducksalad; Heteranthera limosa, 125 g ai/ha, scale 0 to 100 (0 no effect, 100 complete control), read-out: Ducksalad plant response rating): 55% | pest or weed control at 250 g/ha (ducksalad; Heteranthera limosa, 250 g ai/ha, scale of 0 to 100, 0 is no effect, 100 is complete control, read-out: Ducksalad plant response rating): 75% | pest or weed control at 500 g/ha (ducksalad; Heteranthera limosa, 500 g ai/ha, visual rating after 12 to 14 days, scale 0 to 100 (0 no effect, 100 complete control), read-out: Plant response rating, Ducksalad): 90%

CCn1nc(C(C)(C)C)cc1C(=O)Nc1cc(C#N)ccc1F [Compound 140]
Plant response rating, Corn (corn; 500 g ai/ha, visual rating 0-100, 0 no effect, 100 complete control): 0 | Corn plant response rating (corn; [2]): 0 | Corn plant response rating (corn; [3]): 10 | Plant response rating, Corn (corn; 125 g ai/ha, 0 to 100 scale, 0 is no effect, 100 is complete control): 0 | Blackgrass plant response rating (blackgrass; [2]): 0 | Blackgrass plant response rating (blackgrass; [3]): 0 | Plant response rating (0 = no effect, 100 = complete control), Cupgrass, Woolly (woolly cupgrass; 62 g ai/ha, preemergence): 0 | Plant response rating, Cupgrass, Woolly (woolly cupgrass; [4]): 0 | Plant response rating, Cupgrass, Woolly (woolly cupgrass; 250 g ai/ha, scale 0 to 100 (0 no effect, 100 complete control), visual, 12 to 14 days, preemergence): 0 | Cupgrass, Woolly plant response rating (woolly cupgrass; [5]): 45 | Plant response rating (0 = no effect, 100 = complete control), Ragweed (common ragweed; 62 g ai/ha, preemergence): 0 | Plant response rating, Ragweed (common ragweed; [4]): 0 | Ragweed plant response rating (common ragweed; [5]): 95 | Plant response rating (0 = no effect, 100 = complete control), Soybean (soybean; 62 g ai/ha, preemergence): 0 | Soybean plant response rating (soybean; [5]): 0 | Rice plant response rating (rice; [6]): 0 | Rice plant response rating (rice; [7]): 0 | Rice plant response rating (rice; [8]): 0 | Plant response rating, Rice (rice; [9]): 0 | Ducksalad plant response rating (ducksalad; [6]): 0 | Ducksalad plant response rating (ducksalad; [7]): 0 | Ducksalad plant response rating (ducksalad; [8]): 0 | Plant response rating, Ducksalad (ducksalad; [9]): 20

CCNC(=O)c1ccc(F)c(N(C(C)=O)C(=O)c2cc(C(C)(C)C)nn2CC)c1 [Compound 399]
Plant response rating (0 to 100 scale), Corn (corn; [1]): 90 | Corn plant response rating (corn; [10]): 10 | Corn plant response rating (corn; [11]): 40 | Blackgrass plant response rating (blackgrass; [10]): 30 | Blackgrass plant response rating (blackgrass; [11]): 70 | Plant response rating, Cupgrass, Woolly (woolly cupgrass; [12]): 45 | Plant response rating (0 = no effect, 100 = complete control), Cupgrass, Woolly (woolly cupgrass; 125 g ai/ha, preemergence): 65 | Plant response rating, Cupgrass, Woolly (woolly cupgrass; 250 g ai/ha, scale 0-100, preemergence): 80 | Plant response rating, Cupgrass, Woolly (woolly cupgrass; [13]): 95 | Plant response rating, Ragweed (common ragweed; [12]): 95 | Plant response rating (0 = no effect, 100 = complete control), Ragweed (common ragweed; 125 g ai/ha, preemergence): 100 | Plant response rating, Ragweed (common ragweed; [13]): 100 | Plant response rating, Soybean (soybean; [12]): 75 | Plant response rating (0 = no effect, 100 = complete control), Soybean (soybean; 125 g ai/ha, preemergence): 85 | Plant response rating, Soybean (soybean; [13]): 100 | Rice plant response rating (rice; 62 g ai/ha, scale 0 to 100): 65 | Rice plant response rating (rice; [7]): 65 | Rice plant response rating (rice; [8]): 75 | Plant response rating, Rice (rice; [9]): 75 | Ducksalad plant response rating (ducksalad; 62 g ai/ha, scale 0 to 100): 75 | Ducksalad plant response rating (ducksalad; [7]): 75 | Ducksalad plant response rating (ducksalad; [8]): 85 | Plant response rating, Ducksalad (ducksalad; [9]): 85
